Data: patent US6346540B1, “1-(1,2-disubstituted pipeidinyl)-4-substituted piperidine derivatives” (Janssen Pharmaceutica N.V., priority 1995, dated 2002)

Experiments:
guinea-pigs = assay: Antagonism of substance P induced plasma extravasation in guinea-pigs; format: in vivo; conditions: lowest active dose, compound given 1 hour prior to substance P, female guinea-pigs; for LAD conjunctiva / LAD forepaws / LAD nose: 10 minutes after challenge; for LAD trachea / LAD urinary bladder: 30 minutes after challenge
Method: Antagonism of Substance P Induced Plasma Extravasation in Guinea-pigs
Plasma extravasation was induced by injection of substance P (2 mg/kg) in the femoral artery of female guinea-pigs. Evans Blue dye (30 mg/kg) was injected simultaneously. The test compound or solvent was administered 1 hour prior to substance P injection. 10 minutes after challenge, the animals were checked for blue colouring (a direct measure for plasma extravasation) of the nose, the forepaws, and the conjunctiva. 30 minutes after challenge, the animals were sacrificed by CO2 gas inhalation and checked for blue coloring of the trachea and the urinary bladder. […]

melting point [°C]	Compound	LAD conjunctiva (guinea-pigs) [mg/kg]	LAD forepaws (guinea-pigs) [mg/kg]	LAD nose (guinea-pigs) [mg/kg]	LAD trachea (guinea-pigs) [mg/kg]	LAD urinary bladder (guinea-pigs) [mg/kg]
259.1	Cc1cc(C)cc(C(=O)N2CC[C@H](N3CCC(C(=O)O)(c4ccccc4)CC3)C[C@@H]2Cc2ccccc2)c1 (racemic)	–	–	–	–	–
213.1	COc1ccccc1C1(O)CCN([C@@H]2CCN(C(=O)c3cc(C)cc(C)c3)[C@@H](Cc3ccccc3)C2)CC1 (racemic) [Compound 17, (±)-trans-1-(3,5-dimethylbenzoyl)-4-[4-hydroxy-4-(2-methoxyphenyl)-1-piperidinyl]-2-(phenyl-methyl)piperidine]	–	–	–	–	–
121.1	Cc1cc(C)cc(C(=O)N2CC[C@H](N3CCC(NC(=O)c4ccccc4N)CC3)C[C@@H]2Cc2ccccc2)c1 (racemic) [Compound 24, (±)-cis-2-amino-N-[1-[1-(3,5-dimethylbenzoyl)-2-(phenylmethyl)-4-piperidinyl]-4-piperidinyl]benzamide]	–	–	–	–	–
67.8	Cc1cc(C)cc(C(=O)N2CC[C@@H](N3CCC(NCCc4ccccc4)CC3)C[C@@H]2Cc2ccccc2)c1 (racemic) [Compound 27, (±)-trans-1-(3,5-dimethylbenzoyl)-4-[4-[(2-phenylethyl)amino]-1-piperidinyl]-2-(phenylmethyl)piperidine]	–	–	–	–	–
83.3	Cc1cc(C)cc(C(=O)N2CC[C@@H](N3CCC(OC(=O)c4cc(Cl)cc(Cl)c4)CC3)C[C@@H]2Cc2ccccc2)c1 (racemic) [Compound 33, (±)-trans-1-[1-(3,5-dimethylbenzoyl)-2-(phenylmethyl)-4-piperidinyl]-4-piperidinyl 3,5-dichloro-benzoate]	–	–	–	–	–
–	O=C(c1cc(C(F)(F)F)cc(C(F)(F)F)c1)N1CC[C@@H](N2CCC(C(=O)N3CCCC3)(c3ccccc3)CC2)C[C@@H]1Cc1ccc(C(F)(F)F)cc1 (racemic) [Compound 112, (±)-trans-1-[3,5-bis(trifluoromethyl)benzoyl]-4-[4-phenyl-4-(1-pyrrolidinylcarbonyl)-1-piperidinyl]-2-[[4-(trifluoromethyl)phenyl]methyl]-piperidine]	2.5	2.5	2.5	2.5	2.5

Compound	melting point [°C]	LAD conjunctiva (guinea-pigs) [mg/kg]	LAD forepaws (guinea-pigs) [mg/kg]	LAD nose (guinea-pigs) [mg/kg]	LAD trachea (guinea-pigs) [mg/kg]	LAD urinary bladder (guinea-pigs) [mg/kg]
O=C(c1cc(C(F)(F)F)cc(C(F)(F)F)c1)N1CC[C@@H](N2CCC(n3c(=O)[nH]c4ccccc43)CC2)C[C@@H]1Cc1ccccc1 (racemic) [Compound 43, (±)-trans-1-[3,5-bis(trifluoromethyl)benzoyl]-4-[4-(2,3-dihydro-2-oxo-1H-benzimidazol-1-yl)-1-piperidinyl]-2-(phenylmethyl)piperidine]	156.1	2.5	2.5	2.5	10	10
